Converted amounts (≈) assume the structure as drawn. Where two headings read alike, the source gives them in different places.
Legend:
[1] = system: E. coli DH10B(pBAD-tetK), expressing tet(K); experiment: MIC against recombinant E. coli expressing tet(K); assay type: cell-based; conditions: for MIC: Escherichia coli
Source text: (§1) Constructs were transformed into E. coli DH10B for expression. Recombinant strains were pre-induced under optimized conditions with L-arabinose prior to use as inocula in CLSI standardized MIC assays.

[2] = system: Escherichia coli EC155, tetracycline-resistant, tet(A); experiment: MIC assay, EC155; assay type: cell-based; conditions: Table 8, read-out: MIC E. coli tetA
[3] = system: Escherichia coli EC107, ATCC 25922; experiment: MIC assay, EC107; assay type: cell-based; conditions: ATCC25922, Table 8, read-out: MIC E. coli ATCC 25922
[4] = system: Staphylococcus aureus SA161, HA-MRSA, tetracycline-resistant, tet(M); experiment: MIC assay, SA161; assay type: cell-based; conditions: Table 8, read-out: MIC S. aureus MRSA, tetM
[5] = system: Streptococcus pneumoniae SP160, tetracycline-resistant, tet(M); experiment: MIC assay, SP160; assay type: cell-based; conditions: Table 8, read-out: MIC S. pneumoniae tetM
[6] = system: Staphylococcus aureus SA101, ATCC 29213, MSSA; experiment: MIC assay, SA101; assay type: cell-based; conditions: Table 8, read-out: MIC S. aureus ATCC 29213
[7] = system: Enterococcus faecalis EF103, ATCC 29212; experiment: MIC assay, EF103; assay type: cell-based; conditions: Enterococcus faecalis, ATCC29212; Table 8; read-out: MIC E. faecalis ATCC 29212
[8] = system: Enterococcus faecalis EF159, tetracycline-resistant, tet(M); experiment: MIC assay, EF159; assay type: cell-based; conditions: Table 8, read-out: MIC E. faecalis tetM
[9] = system: E. faecalis clinical isolates; experiment: MIC50, MIC90 and MIC range, panel of clinical isolates (Example 20); assay type: cell-based; conditions: 24 isolates, in µg/mL
Description: (§2) The assays were run as follows.
(§3) Both values, as well as the MIC range (the lowest and highest MIC value observed for a collection of organisms), were determined for the isolates listed in Table 3.

[10] = system: S. pneumoniae clinical isolates; experiment: as above; assay type: cell-based; conditions: 19 isolates, in µg/mL
Description: as §2, §3

[11] = system: S. aureus clinical isolates; experiment: as above; assay type: cell-based; conditions: MRSA, 30 isolates; in µg/mL
Description: as §2, §3

[12] = system: tet(M) strains of S. pneumoniae; experiment: MIC, CLSI methodology, recent clinical isolates (Example 21); assay type: cell-based; conditions: Streptococcus pneumoniae, read-out: MIC against tet(M) strains of S. pneumoniae
Description: as §2
(§4) The antibacterial activities of Compounds MIC values were determined according to CLSI methodology. Recent clinical isolates were obtained from Eurofins-Medinet. Antibiotics were obtained from standard commercial sources.

[13] = system: tet(M) and tet(S) strains of E. faecalis; experiment: as above; assay type: cell-based; conditions: Enterococcus faecalis, read-out: MIC against tet(M) and tet(S) strains of E. faecalis
Description: as §2, §4

[14] = system: tet(M) strains of S. aureus; experiment: as above; assay type: cell-based; conditions: Staphylococcus aureus, read-out: MIC against tet(M) strains of S. aureus
Description: as §2, §4

[15] = system: tet(K) strains of S. aureus; experiment: as above; assay type: cell-based; conditions: Staphylococcus aureus, read-out: MIC against tet(K) strains of S. aureus
Description: as §2, §4

[16] = system: E. coli S30 extract system, coupled in vitro transcription/translation, firefly luciferase readout; experiment: In vitro transcription/translation (TnT) assay; assay type: biochemical
[17] = system: E. coli DH10B(pBAD-tetM), expressing tet(M); experiment: MIC against recombinant E. coli expressing tet(M); assay type: cell-based; conditions: for MIC: Escherichia coli
Source text: as §1

[18] = system: Streptococcus pneumoniae SP106, ATCC 49619; experiment: MIC assay, SP106; assay type: cell-based; conditions: ATCC49619, Table 8, read-out: MIC S. pneumoniae ATCC 49619
[19] = system: Staphylococcus aureus SA158, tetracycline-resistant tet(K); experiment: MIC assay, SA158; assay type: cell-based; conditions: Table 8, read-out: MIC S. aureus tetK

## CN(C)[C@@H]1C(O)=C(C(N)=O)C(=O)[C@@]2(O)C(O)=C3C(=O)c4c(O)c(NCC(C)(C)CN5CCCC5)nc(Cl)c4C[C@H]3C[C@@H]12 [Compound 108]
[1]; read-out: MIC, TetK Induced
  MIC: 2 µg/mL
[1]; read-out: MIC, Uninduced
  MIC: 4 µg/mL
[1]; ratio of TetK induced to uninduced MIC
  MIC ratio, TetK induced to uninduced: 0.5
[1]; result in words
  Effect of expression of (tet)K on activity: unaffected
[2]
  MIC: 8 µg/mL (≈ 13.2 µM)
[3]
  MIC: 2 µg/mL (≈ 3.31 µM)
[4]
  MIC: 2 µg/mL (≈ 3.31 µM)
[5]
  MIC: 0.25 µg/mL (≈ 0.414 µM)
[6]
  MIC: 0.25 µg/mL (≈ 0.414 µM)
[7]
  MIC: 0.5 µg/mL (≈ 0.828 µM)
[8]
  MIC: 2 µg/mL (≈ 3.31 µM)
[9]
  MIC Range: 0.063-4
[10]
  MIC Range: <=0.016-0.13
[11]
  MIC Range: 0.5-8
[12]
  MIC: ≤ 0.25 µg/mL
[13]
  MIC: ≤ 4 µg/mL
[14]
  MIC: ≤ 8 µg/mL
[15]
  MIC: ≤ 1 µg/mL
[16]
  TnT IC50: 0.6 µg/mL
[16]; E. coli S30 extract, luciferase readout
  IC50, in vitro transcription/translation system: 0.62 µg/mL (≈ 1.03 µM)
[17]; read-out: MIC, TetM induced
  MIC: 2 µg/mL
[17]; read-out: MIC, Uninduced
  MIC: 2 µg/mL
[17]; ratio of MICs
  Ratio (TetM induced / Uninduced): 1
[17]; result in words
  Effect of expression of (tet)M on activity: minimally affected
[18]
  MIC: 0.031 µg/mL (≈ 0.0513 µM)
[19]
  MIC: 0.13 µg/mL (≈ 0.215 µM)
